According to the NIST ThermoML archive (doi:10.1016/j.fluid.2019.05.003):
± gives the expanded uncertainty stated by the source.

Assay: xn = mol fraction of the nth substance listed
Conditions: 101 kPa, Liquid; for viscosity: Falling or rolling sphere viscometry; for mass density: Vibrating tube method

C[N+]1(CCO)CCOCC1.[Br-] [N-methyl-N-(2-hydroxyethyl)morpholinium bromide] + O
Conditions | mass density [kg/m3] | viscosity [mPa·s]
298.15 K, x1 = 0.023 | 1078.7 ± 0.6 | 1.173 ± 0.071
298.15 K, x1 = 0.038 | 1121 ± 0.6 | 1.482 ± 0.09
298.15 K, x1 = 0.051 | 1150.9 ± 0.5 | 1.716 ± 0.1
298.15 K, x1 = 0.075 | 1197.8 ± 0.4 | 2.345 ± 0.14
298.15 K, x1 = 0.097 | 1232 ± 0.4 | 3.195 ± 0.19
298.15 K, x1 = 0.124 | 1264.8 ± 0.4 | 4.717 ± 0.29
298.15 K, x1 = 0.157 | 1297.5 ± 0.4 | 7.331 ± 0.44
298.15 K, x1 = 0.197 | 1328.8 ± 0.4 | 14.15 ± 0.86
298.15 K, x1 = 0.227 | 1345.7 ± 0.4 | 20.61 ± 1.2
303.15 K, x1 = 0.023 | 1076.7 ± 0.6 | 1.058 ± 0.064
303.15 K, x1 = 0.038 | 1118.8 ± 0.6 | 1.33 ± 0.08
303.15 K, x1 = 0.051 | 1148.6 ± 0.5 | 1.536 ± 0.093
303.15 K, x1 = 0.075 | 1195.3 ± 0.4 | 2.087 ± 0.13
303.15 K, x1 = 0.097 | 1229.3 ± 0.4 | 2.831 ± 0.17
303.15 K, x1 = 0.124 | 1262 ± 0.4 | 4.126 ± 0.25
303.15 K, x1 = 0.157 | 1294.6 ± 0.4 | 6.314 ± 0.38
303.15 K, x1 = 0.197 | 1325.9 ± 0.4 | 12.14 ± 0.74
303.15 K, x1 = 0.227 | 1342.8 ± 0.4 | 17.39 ± 1.1
308.15 K, x1 = 0.023 | 1074.6 ± 0.6 | 0.962 ± 0.058
308.15 K, x1 = 0.038 | 1116.5 ± 0.6 | 1.206 ± 0.073
308.15 K, x1 = 0.051 | 1146.2 ± 0.5 | 1.385 ± 0.084
308.15 K, x1 = 0.075 | 1192.7 ± 0.4 | 1.878 ± 0.11
308.15 K, x1 = 0.097 | 1226.6 ± 0.4 | 2.526 ± 0.15
308.15 K, x1 = 0.124 | 1259.2 ± 0.4 | 3.653 ± 0.22
308.15 K, x1 = 0.157 | 1291.7 ± 0.4 | 5.635 ± 0.34
308.15 K, x1 = 0.197 | 1322.9 ± 0.4 | 10.46 ± 0.63
308.15 K, x1 = 0.227 | 1339.7 ± 0.4 | 14.76 ± 0.89
313.15 K, x1 = 0.023 | 1072.3 ± 0.6 | 0.88 ± 0.053
313.15 K, x1 = 0.038 | 1114.1 ± 0.6 | 1.101 ± 0.067
313.15 K, x1 = 0.051 | 1143.6 ± 0.5 | 1.26 ± 0.076
313.15 K, x1 = 0.075 | 1190 ± 0.4 | 1.7 ± 0.1
313.15 K, x1 = 0.097 | 1223.8 ± 0.4 | 2.278 ± 0.14
313.15 K, x1 = 0.124 | 1256.4 ± 0.4 | 3.255 ± 0.2
313.15 K, x1 = 0.157 | 1288.8 ± 0.4 | 4.938 ± 0.3
313.15 K, x1 = 0.197 | 1319.9 ± 0.4 | 9.042 ± 0.55
313.15 K, x1 = 0.227 | 1336.7 ± 0.4 | 12.6 ± 0.76
318.15 K, x1 = 0.023 | 1069.8 ± 0.6 | 0.81 ± 0.049
318.15 K, x1 = 0.038 | 1111.6 ± 0.6 | 1.011 ± 0.061
318.15 K, x1 = 0.051 | 1141 ± 0.5 | 1.154 ± 0.07
318.15 K, x1 = 0.075 | 1187.3 ± 0.4 | 1.547 ± 0.094
318.15 K, x1 = 0.097 | 1221 ± 0.4 | 2.062 ± 0.12
318.15 K, x1 = 0.124 | 1253.5 ± 0.4 | 2.921 ± 0.18
318.15 K, x1 = 0.157 | 1285.8 ± 0.4 | 4.371 ± 0.27
318.15 K, x1 = 0.197 | 1316.9 ± 0.4 | 7.869 ± 0.48
318.15 K, x1 = 0.227 | 1333.7 ± 0.4 | 10.85 ± 0.66
323.15 K, x1 = 0.023 | – | 0.754 ± 0.046
323.15 K, x1 = 0.038 | – | 0.933 ± 0.056
323.15 K, x1 = 0.051 | – | 1.061 ± 0.064
323.15 K, x1 = 0.075 | – | 1.416 ± 0.086
323.15 K, x1 = 0.097 | – | 1.88 ± 0.11
323.15 K, x1 = 0.124 | – | 2.641 ± 0.16
323.15 K, x1 = 0.157 | – | 3.899 ± 0.24
323.15 K, x1 = 0.197 | – | 6.877 ± 0.42
323.15 K, x1 = 0.227 | – | 9.429 ± 0.57
